Columns and labels:
[1] = molecular target: T1, human recombinant adrenergic α1D receptor (Homo sapiens, UniProt P25100); assay: Adrenergic α1D radioligand binding assay; settings: 1 μM; [3H]Prozosin specific binding; read-out: Percent Inhibition of ligand binding, Adrenergic (1 μM ligand conc.) α1D
T1 construct: expressed in transfected cells; host or cells: human embryonic kidney (HEK-293) cells
T1 sequence (P25100 1-572): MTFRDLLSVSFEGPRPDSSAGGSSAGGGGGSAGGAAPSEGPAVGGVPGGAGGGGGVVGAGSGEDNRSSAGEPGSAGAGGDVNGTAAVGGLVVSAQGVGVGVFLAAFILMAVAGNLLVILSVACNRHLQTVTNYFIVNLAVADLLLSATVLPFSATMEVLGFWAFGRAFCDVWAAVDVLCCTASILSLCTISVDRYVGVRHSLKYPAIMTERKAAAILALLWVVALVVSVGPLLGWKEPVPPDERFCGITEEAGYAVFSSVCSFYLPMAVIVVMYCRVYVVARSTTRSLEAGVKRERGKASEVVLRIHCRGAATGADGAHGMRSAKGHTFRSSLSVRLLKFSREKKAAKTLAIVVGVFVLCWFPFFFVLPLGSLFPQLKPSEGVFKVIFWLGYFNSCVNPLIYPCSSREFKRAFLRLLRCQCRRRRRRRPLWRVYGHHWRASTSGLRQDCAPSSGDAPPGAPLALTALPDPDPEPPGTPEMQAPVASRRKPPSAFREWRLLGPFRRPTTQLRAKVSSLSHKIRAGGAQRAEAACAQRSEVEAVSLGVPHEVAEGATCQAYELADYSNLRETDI
Procedure: To evaluate in radioligand binding assays the activity of compounds of the invention, human recombinant adrenergic α1D receptor expressed in human embryonic kidney (HEK-293) cells [Kenny, B. A. et al. Br. J. Pharmacol. (1995), 115(6):981] in a 50 mM Tris-HCl buffer, pH 7.4, was used. Compounds of invention were incubated with 0.6 nM [^3H]Prozosin for 60 min. at 25° C. Non-specific binding was estimated in the presence of 10 μM phentolamine. Receptor proteins were filtered and washed, the filters were then counted to determine [^3H]Prozosin specifically bound. Compounds were screened at 1 μM or lower, using 1% DMSO as vehicle. Compounds of the invention were tested in this biochemical assay. Biochemical assay results for representative compounds were presented as the percent inhibition of specific binding in Table 3.

[2] = molecular target: human recombinant dopamine D2L receptor (Homo sapiens, UniProt P14416); assay: Dopamine D2L radioligand binding assay; settings: [3H]Spiperone specific binding; for inhibition at 1 µM: read-out: Percent Inhibition of ligand binding, Dopamine (1 μM ligand conc.) D2L
Chain of human recombinant dopamine D2L receptor (P14416 whole entry): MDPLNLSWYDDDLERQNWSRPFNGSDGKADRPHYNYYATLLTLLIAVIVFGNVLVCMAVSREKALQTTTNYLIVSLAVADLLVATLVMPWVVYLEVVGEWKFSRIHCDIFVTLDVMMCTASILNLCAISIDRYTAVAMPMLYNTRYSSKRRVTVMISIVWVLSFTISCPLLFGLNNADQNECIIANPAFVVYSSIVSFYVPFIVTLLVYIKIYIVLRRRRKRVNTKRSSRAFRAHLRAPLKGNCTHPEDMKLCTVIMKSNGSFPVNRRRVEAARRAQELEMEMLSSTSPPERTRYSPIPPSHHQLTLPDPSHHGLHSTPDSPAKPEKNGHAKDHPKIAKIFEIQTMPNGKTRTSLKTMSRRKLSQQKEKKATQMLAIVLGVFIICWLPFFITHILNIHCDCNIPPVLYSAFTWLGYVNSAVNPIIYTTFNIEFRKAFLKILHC
Procedure: To evaluate in radioligand binding assays the activity of compounds of the invention, human recombinant dopamine D2L receptor expressed in Chinese hamster ovary (CHO) cells [Grandy, D. K. et al. Proc. Natl. Acad. Sci. USA. (1989), 86:9762; Hayes, G. et al., Mol. Endocrinol. (1992), 6:920] in a modified Tris-HCl buffer (50 mM Tris-HCl, pH 7.4, 1.4 mM Ascorbic Acid, 0.001% BSA, 150 mM NaCl) was used. Compounds of the invention were incubated with 0.16 nM [^3H]Spiperone for 120 min. at 25° C. Non-specific binding was estimated in the presence of 10 μM Haloperidol. Receptor proteins were filtered and washed, the filters were then counted to determine [^3H]Spiperone specifically bound. Compounds were screened at 1 μM or lower, using 1% DMSO as vehicle. Biochemical assay results are presented as the percent inhibition of specific binding in Table 3.

[3] = molecular target: T2, human recombinant serotonin (5-Hydroxytryptamine) 5-HT2A receptor (Homo sapiens, UniProt P28223); assay: Serotonin 5-HT2A radioligand binding assay; settings: [3H]Ketanserin specific binding, read-out: Percent Inhibition of ligand binding, Serotonin (1 μM ligand concentration) 5-HT2A
T2 construct: expressed in transfected cells; host or cells: Chinese hamster ovary (CHO-K1) cells
T2 sequence (P28223 whole entry): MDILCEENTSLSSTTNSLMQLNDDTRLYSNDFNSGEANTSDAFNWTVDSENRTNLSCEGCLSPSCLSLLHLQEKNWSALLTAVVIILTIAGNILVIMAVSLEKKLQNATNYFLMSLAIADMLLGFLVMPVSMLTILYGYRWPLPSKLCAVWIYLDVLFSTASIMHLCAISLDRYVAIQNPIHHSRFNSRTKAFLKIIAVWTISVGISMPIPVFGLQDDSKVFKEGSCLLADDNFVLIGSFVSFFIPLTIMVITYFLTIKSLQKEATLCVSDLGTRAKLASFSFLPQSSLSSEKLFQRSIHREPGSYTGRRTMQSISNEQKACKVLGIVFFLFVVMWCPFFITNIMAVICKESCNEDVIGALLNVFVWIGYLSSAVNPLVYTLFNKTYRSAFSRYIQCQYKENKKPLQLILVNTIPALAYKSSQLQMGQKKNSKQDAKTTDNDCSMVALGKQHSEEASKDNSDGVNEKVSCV
Procedure: To evaluate in radioligand binding assays the activity of compounds of the invention, human recombinant serotonin (5-Hydroxytryptamine) 5-HT2A receptor expressed in Chinese hamster ovary (CHO-K1) cells [Bonhaus, D. W. et al., Br. J. Pharmacol. (1995), 115:622; Saucier, C. et al., J. Neurochem. (1997), 68:1998] in a 50 mM Tris-HCl buffer, pH 7.4, was used. Compounds of the invention were incubated with 0.5 nM [^3H]Ketanserin for 60 min. at 25° C. Non-specific binding was estimated in the presence of 1 μM Mianserin. Receptor proteins were filtered and washed, the filters were then counted to determine [^3H]Ketanserin specifically bound. Compounds were screened at 1 μM or lower, using 1% DMSO as vehicle. Biochemical assay results are presented as the percent inhibition of specific binding in Table 4.

[4] = molecular target: T3, human recombinant serotonin (5-Hydroxytryptamine) 5-HT2C receptor (Homo sapiens, UniProt P28335); assay: Serotonin 5-HT2C radioligand binding assay; settings: [3H]Mesulergine specific binding, read-out: Percent Inhibition of ligand binding, Serotonin (1 μM ligand concentration) 5-HT2C
T3 construct: expressed in transfected cells; host or cells: Chinese hamster ovary (CHO-K1) cells
T3 sequence (P28335 33-458): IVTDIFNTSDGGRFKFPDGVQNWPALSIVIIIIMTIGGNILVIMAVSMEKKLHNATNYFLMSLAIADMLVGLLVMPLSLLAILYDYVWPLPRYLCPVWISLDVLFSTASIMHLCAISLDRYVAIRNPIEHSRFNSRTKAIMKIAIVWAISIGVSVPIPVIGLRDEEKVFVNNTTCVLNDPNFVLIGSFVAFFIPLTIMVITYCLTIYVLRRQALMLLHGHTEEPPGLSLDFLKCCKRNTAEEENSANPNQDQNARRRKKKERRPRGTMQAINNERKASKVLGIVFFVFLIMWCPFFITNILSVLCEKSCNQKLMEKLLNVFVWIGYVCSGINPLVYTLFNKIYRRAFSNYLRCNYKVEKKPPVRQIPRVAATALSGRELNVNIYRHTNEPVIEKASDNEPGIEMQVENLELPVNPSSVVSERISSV
Procedure: To evaluate in radioligand binding assays the activity of compounds of the invention, human recombinant serotonin (5-Hydroxytryptamine) 5-HT2C receptor expressed in Chinese hamster ovary (CHO-K1) cells [Wolf, W. A. et al., J. Neurochem. (1997), 69:1449] in a modified Tris-HCl buffer (50 mM Tris-HCl, pH 7.4, 0.1% Ascorbic Acid, 10 μM Pargyline) was used. Compounds of the invention were incubated with 1 nM [^3H]Mesulergine for 60 min. at 25° C. Non-specific binding was estimated in the presence of 1 μM Mianserin. Receptor proteins were filtered and washed, the filters were then counted to determine [^3H]Mesulergine specifically bound. Compounds were screened at 1 μM or lower, using 1% DMSO as vehicle. Biochemical assay results are presented as the percent inhibition of specific binding in Table 4.

| Structure (SMILES) | inhibition at 1 µM [1] | inhibition at 1 µM [2] | inhibition at 1 µM [3] | inhibition at 1 µM [4] | Percent Inhibition of ligand binding, Dopamine (1 μM ligand conc.) D2L [2] |
| --- | --- | --- | --- | --- | --- |
| Cc1ccc2c(c1)c1c(n2CCc2ccc(C(F)(F)F)nc2)CN2CCC1C2 (stereo not drawn) [Compound 1] | 51% | 8% | 18% | 10% | – |
| Cc1ccc2c(c1)c1c(n2CC(C)(O)c2ccc(F)cc2)CN2CCC1C2 (stereo not drawn) [Compound 2] | 15% | 7% | 76% | 57% | – |
| C=C(Cn1c2c(c3cc(C)ccc31)C1CCN(C2)C1)c1ccc(F)cc1 (stereo not drawn) [Compound 3] | 93% | 12% | 94% | 97% | 21% |
| Cc1ccc2c(c1)c1c(n2CC(O)c2ccccc2)CN2CCC1C2 (stereo not drawn) [Compound 4] | 54% | 3% | 49% | 31% | – |
| Cc1ccc(C(O)Cn2c3c(c4cc(C)ccc42)C2CCN(C3)C2)cc1 (stereo not drawn) [Compound 5] | 34% | 6% | 81% | 53% | – |
| COc1ccc(C(O)Cn2c3c(c4cc(C)ccc42)C2CCN(C3)C2)cc1F (stereo not drawn) [Compound 6] | 28% | -1% | 45% | 43% | – |
| Cc1ccc2c(c1)c1c(n2CC(=O)N2CCCCC2)CN2CCC1C2 (stereo not drawn) [Compound 7] | -7% | -3% | -3% | 2% | – |
| COc1ccc(C(O)Cn2c3c(c4cc(C)ccc42)C2CCN(C3)C2)cc1OC (stereo not drawn) [Compound 8] | 20% | -16% | 25% | 12% | – |
| Cc1ccc2c(c1)c1c(n2CCc2cncc(F)c2)CN2CCC1C2 (stereo not drawn) [Compound 9] | 24% | 9% | -6% | 4% | – |
| Cc1ccc(/C=C/n2c3c(c4cc(C)ccc42)C2CCN(C3)C2)cc1 (stereo not drawn) [Compound 10] | 73% | 18% | 20% | 9% | – |
| Cc1ccc2c(c1)c1c(n2CCc2ccccn2)CN2CCC1C2 (stereo not drawn) [Compound 11] | 26% | -6% | 10% | 17% | – |
| Cc1ccc2c(c1)c1c(n2CCc2ccc(C)nc2)CN2CCC1C2 (stereo not drawn) [Compound 12] | 25% | 0% | 17% | 5% | – |
| Cc1ccc2c(c1)c1c(n2CC(C)(O)c2ccc(Cl)c(Cl)c2)CN2CCC1C2 (stereo not drawn) [Compound 13] | 14% | -2% | 82% | 83% | – |
| Cc1ccc2c(c1)c1c(n2CC(C)(O)c2ccc(Cl)cc2Cl)CN2CCC1C2 (stereo not drawn) [Compound 14] | -5% | 11% | 61% | 87% | – |
| Cc1ccc2c(c1)c1c(n2CC(C)(O)c2ccc(F)c(F)c2)CN2CCC1C2 (stereo not drawn) [Compound 15] | 28% | 0% | 82% | 87% | – |
| Cc1ccc2c(c1)c1c(n2CC(C)(O)c2ccc(Cl)cc2)CN2CCC1C2 (stereo not drawn) [Compound 16] | 24% | 5% | 92% | 92% | – |
| Cc1ccc2c(c1)c1c(n2CC(C)(O)c2ccc(F)cc2F)CN2CCC1C2 (stereo not drawn) [Compound 17] | 19% | 5% | 81% | 92% | – |
| Cc1ccc2c(c1)c1c(n2CC(C)(O)c2ccc(F)c(Cl)c2)CN2CCC1C2 (stereo not drawn) [Compound 18] | 1% | -1% | 81% | 87% | – |
| Cc1ccc2c(c1)c1c(n2CCc2nc(-c3ccccc3)cs2)CN2CCC1C2 (stereo not drawn) [Compound 19] | 34% | -2% | 0% | 23% | – |
| Cc1ccc(C(C)(O)Cn2c3c(c4cc(C)ccc42)C2CCN(C3)C2)cc1 (stereo not drawn) [Compound 20] | 29% | 9% | 102% | 94% | – |
| Cc1ccc2c(c1)c1c(n2C#Cc2ccc(Cl)cc2)CN2CCC1C2 (stereo not drawn) [Compound 35] | – | -6% | 87% | 94% | – |
| C/C(=C/n1c2c(c3cc(C)ccc31)C1CCN(C2)C1)c1ccccc1F (stereo not drawn) [Compound 37] | – | 5% | 96% | 94% | – |
| C/C(=C\n1c2c(c3cc(C)ccc31)C1CCN(C2)C1)c1ccc(F)c(F)c1 (stereo not drawn) [Compound 39] | – | 0% | 94% | 94% | – |
| C/C(=C\n1c2c(c3cc(C)ccc31)C1CCN(C2)C1)c1ccc(Cl)c(Cl)c1 (stereo not drawn) [Compound 40] | – | 6% | 94% | 89% | – |
| COc1ccc(/C(C)=C/n2c3c(c4cc(C)ccc42)C2CCN(C3)C2)cc1F (stereo not drawn) [Compound 41] | – | 17% | 92% | 97% | – |
| C/C(=C\n1c2c(c3cc(C)ccc31)C1CCN(C2)C1)c1cccnc1 (stereo not drawn) [Compound 42] | – | -10% | 47% | 64% | – |
| Cc1ccc2c(c1)c1c(n2C(=O)Cc2ccc(F)cc2)CN2CCC1C2 (stereo not drawn) [Compound 43] | – | 11% | 48% | 66% | – |

— patent publication US9271971B2, “Pyrido[3,4-B]indoles and methods of use” (Medivation Technologies, Inc., priority 2009, dated 2016)
